According to ChEMBL document CHEMBL3430912, “GSK Tres Cantos Anti-Kinetoplastid Screening (TCAKS) Data”:

Key:
Trypanosoma cruzi [1] = experiment: (§1) GSK_TCAKS: pIC50 Trypanosoma cruzi Imaging: Infected Cells. […] Cells were then washed once with PBS before infection. T. cruzi trypomastigotes, collected at days 5 to 8 after infection from LLC-MK2 parasite infected cultures, were allowed to swim out for 4h at 37C from a centrifuged pellet (2,500 rpm/10 min/room temperature). Trypomastigotes were then collected and counted in a CASY Cell Counter. Trypomastigotes, in supplemented DMEM, were added to H9c2 cultures in a multiplicity of infection of 1 and incubated for 18 h. Cells were washed once with PBS before incubation of the infected H9c2 monolayer with trypsin (Life-Technologies) to detach cells from the flask. Cells were counted in a CASY Cell Counter using a 150 um capillary and their density set at 5 * 10^4 cells per mL in supplemented assay DMEM. Infected H9c2 were dispensed into 384-well poly-lysine coated assay plates at 50uL per well using a Multidrop Combi dispenser. After seeding them, the plates were incubated at 37C, 5% CO2 for 72h. Cultures were then fixed and stained by addition of 50 uL of a solution containing 8% formaldehyde and 4 uM DRAQ5 DNA dye (BioStatus, UK) per well. […] Five images were collected per well for reliable statistical analysis. Automated image analysis was performed with a script developed on Acapella High Content Imaging and Analysis Software (PerkinElmer). Output: percentage of infected cells per well as a second infection marker.; assay type: functional, organism-based, Rattus norvegicus; details: H9c2, 4 h
Leishmania donovani [2] = experiment: (§2) GSK_TCAKS: pIC50 Leishmania donovani Imaging: Amastigotes/Macrophages. Assay plates (384-well) were prepared by adding 250nL of compound to each well. For single shot assay, the final compound concentration was 5 uM. […] Automated image analysis was performed with a script developed on Acapella High Content Imaging and Analysis Software (PerkinElmer). Output: Average number of amastigotes per macrophage cell were reported for each well.; assay type: functional, organism-based, Homo sapiens; details: THP-1
[3] = test system: Trypanosoma brucei brucei; experiment: GSK_TCAKS: pIC50 Trypanosoma brucei viability assay using fluorescence intensity. Assay plates (1536-well) were prepared by dispensing 25nL of compound solution per well using an Echo acoustic dispenser (Labcyte).; assay type: functional, organism-based; details: Lister 427, 2 h
Leishmania donovani [4] = experiment: as §2, with “Infected Macrophages.” for “Amastigotes/Macrophages.”, “Percent” for “Average number”, “infected” for “amastigotes per”, “cells” for “cell”; assay type: functional, organism-based, Homo sapiens; details: THP-1
Trypanosoma cruzi [5] = experiment: GSK_TCAKS: pIC50 Trypanosoma cruzi viability assay using beta-GAL activity. This assay was run at single shot at 5uM compound concentration per well. The biological reagents consisted of NIH-3T3 host cells and trypomastigotes parasitic cells; both cell types were set to a 3.3 * 10^5 cells/mL dilution in assay DMEM by means of a CASY cell counter device using a 60um capillary. 6 uL of the mixture were dispensed per well (about 1 * 10^3 host-cells and 1 * 10^3 parasites) with a Multidrop Combi dispenser. […] In all wells, the percentage of DMSO never exceeded 0.5%. Plates incubated for four days at 37C, 5% CO2. The substrate used for the assay fluorescence intensity (FLINT) readout was resorufin-beta-D-galactopiranoside (Sigma-Aldrich) at 5uM per well. It was diluted in PBS supplemented with the soft detergent Igepal (Fluka).; assay type: functional, organism-based, Mus musculus; details: Tulahuen, NIH3T3
[6] = target: Sterol 14-alpha demethylase (Trypanosoma cruzi (strain CL Brener), UniProt Q7Z1V1); experiment: GSK_TCAKS: pIC50 CYP51 from Trypanosoma cruzi.; assay type: functional
Chain of Sterol 14-alpha demethylase (Q7Z1V1 whole entry): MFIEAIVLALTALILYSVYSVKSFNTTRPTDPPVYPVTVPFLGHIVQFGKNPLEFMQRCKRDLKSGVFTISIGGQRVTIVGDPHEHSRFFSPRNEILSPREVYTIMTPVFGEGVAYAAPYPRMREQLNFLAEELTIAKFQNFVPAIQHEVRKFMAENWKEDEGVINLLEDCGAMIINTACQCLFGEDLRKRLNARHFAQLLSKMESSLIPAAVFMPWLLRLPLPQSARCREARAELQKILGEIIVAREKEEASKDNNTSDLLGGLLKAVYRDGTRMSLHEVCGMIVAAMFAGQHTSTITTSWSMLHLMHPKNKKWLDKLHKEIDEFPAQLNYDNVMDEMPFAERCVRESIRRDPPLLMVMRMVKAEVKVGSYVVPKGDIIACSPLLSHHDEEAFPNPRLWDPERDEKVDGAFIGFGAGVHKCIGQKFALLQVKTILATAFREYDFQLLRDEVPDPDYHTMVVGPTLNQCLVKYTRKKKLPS

Leishmania donovani [7] = experiment: as §2, with “THP-1 Host Macrophages.” for “Amastigotes/Macrophages.”, “THP-1” for “Average number of amastigotes per macrophage”, “cell count” for “cell”; assay type: functional, organism-based, Homo sapiens
[8] = GSK_TCAKS: pIC50 HepG2 human cell line viability assay using luminiscence. […] Seeding density was checked to ensure that new mono-layers were not more than 50% confluent at the time of harvesting. Cell suspension was added to 500 mL of the same medium at a final density of 1.2 * 10^5 cells/mL. This cell suspension was dispensed (25 uL, 3000 cells per well) into 384-well clear-bottom plates using a Multidrop Combi dispenser. Prior to addition of the cell suspension, the screening compounds (250 nL) were pre-dispensed into the plates with an Echo liquid handler. Plates were incubated for 48 h at 37C, 5% CO2. After incubation, plates equilibrated at room temperature for 30 min before proceeding to develop the luminescent signal. The signal developer, CellTiter-Glo Reagent, was allowed to equilibrate at room temperature for 30 min and added to the plates (25uL per well) using a Multidrop Combi dispenser. Plates were left for 10 min at room temperature for stabilization and then read using a ViewLux.; assay type: toxicity, cell-based
Trypanosoma cruzi [9] = experiment: GSK_TCAKS: pIC50 Trypanosoma cruzi Imaging: Amastigotes/Cell. […] Cells were then washed once with PBS before infection. T. cruzi trypomastigotes, collected at days 5 to 8 after infection from LLC-MK2 parasite infected cultures, were allowed to swim out for 4h at 37C from a centrifuged pellet (2,500 rpm/10 min/room temperature). Trypomastigotes were then collected and counted in a CASY Cell Counter. Trypomastigotes, in supplemented DMEM, were added to H9c2 cultures in a multiplicity of infection of 1 and incubated for 18 h. Cells were washed once with PBS before incubation of the infected H9c2 monolayer with trypsin (Life-Technologies) to detach cells from the flask. Cells were counted in a CASY Cell Counter using a 150 um capillary and their density set at 5 * 10^4 cells per mL in supplemented assay DMEM. Infected H9c2 were dispensed into 384-well poly-lysine coated assay plates at 50uL per well using a Multidrop Combi dispenser. After seeding them, the plates were incubated at 37C, 5% CO2 for 72h. Cultures were then fixed and stained by addition of 50 uL of a solution containing 8% formaldehyde and 4 uM DRAQ5 DNA dye (BioStatus, UK) per well. […] Five images were collected per well for reliable statistical analysis. Automated image analysis was performed with a script developed on Acapella High Content Imaging and Analysis Software (PerkinElmer). Output: number of amastigotes per cell as infection level measurement.; assay type: functional, organism-based, Rattus norvegicus; details: H9c2, 4 h
Leishmania donovani [10] = experiment: GSK_TCAKS: pIC50 Leishmania donovani viability assay using fluorescence intensity. Assay plates (1536-well) were prepared by adding 30nL per well of compound. For single shot assay, the final compound concentration was 5uM. […] Briefly, eGFP LdBOB axenic amastigotes were harvested, fixed and counted in a CASY cell counter (Roche-Applied Science). A final concentration of 1.5 * 10^5 cells per well were prepared in amastigote media containing 500 U/mL penicillin/streptomycin (Invitrogen) and 6uL was dispensed to each experimental well using a Multidrop Combi dispenser (Thermo Scientific). 6uL of assay media was dispensed to control columns used as reference for 100% compound response. Following incubation for 72 h at 37C, 5% CO2, 2 uL of resazurin was added to each well at a final concentration of 0.5 mM in phosphate buffered saline (PBS) with IGEPAL (Sigma-Aldrich), 0.05% (v/v).; assay type: functional, organism-based
[11] = test system: Trypanosoma brucei brucei; experiment: GSK_TCAKS: pIC50 Trypanosoma brucei viability assay using luminiscence. Assay plates (1536-well) were prepared. T. brucei cultures were harvested and counted in a CASY cell counter. A parasite suspension was prepared at a final concentration of 5 * 10^4 cells/mL in complete HMI9 medium and 6uL was dispensed to all wells containing compounds using a Multidrop Combi dispenser. 6uL of HMI9 media with 0.4% DMSO were dispensed to control columns. Plates were incubated for 24 h at 37C, 5% CO2 then tempered for 10 min at room temperature. ATP content was quantified by adding 4 uL of CellTiter-Glo Reagent (Promega) according to the manufacturer's instructions. Luminescence was measured using a ViewLux.; assay type: functional, organism-based; details: Lister 427, CASY
Trypanosoma cruzi [12] = experiment: as §1, with “H2C9” for “Trypanosoma cruzi”, “H9c2 Host Cardiomyocytes.” for “Infected Cells.”, “Number” for “percentage”, “H9c2 Host Cardiomyocytes nuclei to determine drug-related cytotoxicity.” for “infected cells per well as a second infection marker.”; assay type: functional, organism-based, Rattus norvegicus; details: H9c2, 4 h

Row | SMILES | IC50 (Trypanosoma cruzi [1]) [µM] | IC50 (Leishmania donovani [2]) [µM] | IC50 [3] [µM] | IC50 (Leishmania donovani [4]) [µM] | IC50 (Trypanosoma cruzi [5]) [µM] | IC50 [6] [µM] | IC50 (Leishmania donovani [7]) [µM] | IC50 at 48 h [8] [µM] | IC50 (Trypanosoma cruzi [9]) [µM] | IC50 (Leishmania donovani [10]) [µM] | IC50 [11] [µM] | IC50 (Trypanosoma cruzi [12]) [µM]
1 | COc1ccc(CNc2cc(C3CC3)nc(-c3nccn3C)n2)cc1 | 0.794 | 0.794 | 1.26 | 0.794 | 1 | 5.01 | 12.6 | 25.1 | 0.631 | 2 | 2.51 | 1
2 | Nc1cc(-c2ccc3ncnc(N4CCOCC4)c3c2)cnc1N | 5.01 | 1.26 | 0.0501 | 10 | 1.58 | 79.4 | > 50.1 | > 100 | 1.58 | 3.98 | 0.158 | 3.16
3 | N#Cc1ccccc1S(=O)(=O)N1CCN(C(=O)CNC(=O)c2ccc3c(c2)OCO3)CC1 | 1 | 1.58 | > 39.8 | 5.01 | 15.8 | 79.4 | > 50.1 | > 100 | 0.631 | 0.631 | > 39.8 | > 50.1
4 | COc1ccc(Nc2nc(N[C@H]3CC[C@H](O)CC3)ncc2Br)c(C(N)=O)c1 | 3.16 | 0.631 | 0.1 | 1 | 3.98 | 12.6 | 0.398 | > 100 | 2 | 3.16 | 0.251 | 0.794
5 | COc1ccc(-c2cnc(NC(=O)c3cc(-c4ccccn4)n[nH]3)n2C)cc1 | 5.01 | 0.794 | 0.398 | 1 | 3.55 | 15.8 | > 50.1 | > 100 | 3.98 | 3.98 | 10 | > 50.1
6 | O=C(Nc1nc(-c2ccccn2)cs1)c1ccc(S(=O)(=O)N2CCCCC2)cc1 | 0.631 | 1 | 0.398 | 1.26 | 0.631 | 6.31 | 12.6 | 63.1 | 0.398 | 0.631 | 0.631 | 2.51
7 | Cc1ccccc1CNC(=O)CN(Cc1ccccn1)Cc1ccccn1 | 15.8 | 3.98 | 6.31 | 6.31 | 5.01 | 100 | > 79.4 | > 158 | 6.31 | 10 | 20 | > 79.4
8 | O=C(NCCc1ccn(-c2ccccc2)n1)C1CCCCC1 | 1 | > 50.1 | 0.251 | > 50.1 | 1.26 | 100 | > 50.1 | > 100 | 1 | > 50.1 | 0.316 | > 50.1
9 | NC(=O)c1ncccc1Nc1nc(N[C@H]2CC[C@H](O)CC2)ncc1Br | 2 | 0.631 | 0.316 | 1.26 | 1.58 | > 100 | 0.398 | > 100 | 0.501 | 1.26 | 0.631 | 0.631
10 | C[C@@H](Oc1cc(-n2cnc3cc(N)ccc32)sc1C(N)=O)c1ccccc1Cl | 20 | 20 | 0.251 | 31.6 | 1.26 | 3.16 | 25.1 | 20 | 5.01 | 3.16 | 0.794 | 1
11 | CN1CCC(N(C)c2nccc(N3CCN(C(=O)c4cccc(-c5cccnc5)c4)CC3)n2)CC1 | 1.26 | 1.26 | 0.794 | 1.26 | 0.316 | 1.58 | 7.94 | 39.8 | 1 | > 50.1 | 1 | 7.94
12 | CCOc1ccccc1C(=O)Nc1nnc(-c2ccc3c(c2)OCO3)s1 | 0.0794 | 0.316 | > 39.8 | 0.501 | 0.631 | > 100 | > 50.1 | > 100 | 0.0631 | 0.794 | > 39.8 | > 50.1
13 | O=C(CN(Cc1ccccn1)Cc1ccccn1)NCc1ccc2c(c1)OCO2 | 12.6 | 6.31 | 6.31 | 7.94 | 7.94 | 100 | > 79.4 | > 158 | 6.31 | 12.6 | 20 | > 79.4
14 | CC(c1ccc2c(c1)CCCC2)N(C)c1ncc2c(N)nc(N)nc2n1 (centres undefined) | 0.0316 | 0.794 | 15.8 | 2 | 0.0316 | 25.1 | 25.1 | 50.1 | 0.01 | 2.51 | 12.6 | 10
15 | O=C(NNC(=O)c1ccccn1)c1ccc(-c2ccccc2)cc1 | 1.58 | 3.16 | 0.316 | 6.31 | 1.58 | 31.6 | 3.16 | > 100 | 1.26 | 3.16 | 0.631 | 2
16 | O=C(Nc1ccc(C(F)(F)F)cc1)NC1(C(=O)NCc2ccco2)CCCCC1 | > 50.1 | > 50.1 | 0.794 | > 50.1 | 7.94 | > 31.6 | 31.6 | > 100 | > 50.1 | 39.8 | 1 | > 50.1
17 | O=C(c1ccc(O)c(Cl)c1)N1CCN(c2cnccn2)CC1 | > 50.1 | 3.16 | > 39.8 | 5.01 | > 50.1 | > 100 | > 50.1 | > 100 | 10 | 0.316 | > 39.8 | > 50.1
